Data published in patent US7314709B2, “Compositions and methods for detecting and quantifying COX-2 activity by lipoamino acid metabolism” (Vanderbilt University, priority 2002, dated 2008).
Numbering of substitutions follows the chain as printed.

How the values were obtained:
Type in all cases: biochemical, murine
[1] = target: T1, mCOX-2 R513H (Mus musculus, UniProt Q05769, R499H); assay: Initial O2 uptake rate with side pocket mutant R513H; settings: 200 nM enzyme; AA 100 μM, NAGly 200 μM
T1 construct: made in house; host or cells: Sf-9 insect cells
T1 sequence (Q05769 18-604 R499H): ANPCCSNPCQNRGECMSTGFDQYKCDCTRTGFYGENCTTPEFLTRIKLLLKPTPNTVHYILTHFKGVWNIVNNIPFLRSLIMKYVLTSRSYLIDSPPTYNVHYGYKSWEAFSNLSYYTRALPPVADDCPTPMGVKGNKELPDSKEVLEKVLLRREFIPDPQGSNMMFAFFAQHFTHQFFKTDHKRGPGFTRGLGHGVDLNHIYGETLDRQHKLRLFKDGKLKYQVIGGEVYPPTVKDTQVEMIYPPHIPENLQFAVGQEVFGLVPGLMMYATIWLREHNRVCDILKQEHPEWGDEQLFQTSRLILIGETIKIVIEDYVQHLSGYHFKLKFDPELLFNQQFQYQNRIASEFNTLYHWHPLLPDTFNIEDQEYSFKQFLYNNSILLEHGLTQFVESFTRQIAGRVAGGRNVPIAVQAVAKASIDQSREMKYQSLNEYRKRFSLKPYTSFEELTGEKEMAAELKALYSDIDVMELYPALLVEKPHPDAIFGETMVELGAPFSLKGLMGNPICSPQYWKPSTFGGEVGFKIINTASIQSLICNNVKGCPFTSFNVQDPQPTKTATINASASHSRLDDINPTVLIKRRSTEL
Procedure: (§1) Enzymology: COX-1 was purified from ram seminal vesicles as previously described. Site-directed mutagenesis of COX-2 was performed as described previously. Recombinant COX-2 enzymes were expressed in Sf-9 insect cells and purified by ion-exchange chromatography and gel filtration as previously described. Apo-enzymes were reconstituted with hematin prior to activity assays.
(§2) COX activity was quantified as previously described. Initial reaction velocity data were obtained from the linear portion of the oxygen uptake curves. Oxygraph data were analyzed by nonlinear regression with Enzyme Kinetics 1.5 software (Trinity Software, Campton, N.H.).
(§3) Previous studies have identified residues in the side pocket of COX-2, especially Arg-513, as critical determinants of 2-AG oxygenation by COX-2 [13]. […] (FIG. 5).

[2] = target: T2, mCOX-2 R120Q (Mus musculus, UniProt Q05769, R106Q); assay: Initial O2 uptake rate with constriction site mutant R120Q; settings: 200 nM enzyme; AA 100 μM, NAGly 200 μM
T2 construct: made in house; host or cells: Sf-9 insect cells
T2 sequence (Q05769 18-604 R106Q): T1 sequence (Q05769 18-604 R499H) with R89Q, H482R
Procedure: as §1, §2
At the bottom of the substrate (and inhibitor) binding site, there is a hydrogen bonding network comprised of residues Arg-120, Tyr-355, and Glu524, that form a constriction which is present in both COX isoforms. These residues contribute to the binding of the carboxylate in both AA and NSAIDs, and the glycerol moiety of 2-AG [12,23-27].

[3] = target: T3, mCOX-2 V523I (Mus musculus, UniProt Q05769, V509I); assay: Initial O2 uptake rate with side pocket mutant V523I; settings: 200 nM enzyme; AA 100 μM
T3 construct: made in house; host or cells: Sf-9 insect cells
T3 sequence (Q05769 18-604 V509I): T1 sequence (Q05769 18-604 R499H) with H482R, V492I
Procedure: as §1, §2, §3

[4] = target: T4, mCOX-2 Y385F (Mus musculus, UniProt Q05769, Y371F); assay: O2 uptake with mCOX-2 site-directed mutant Y385F
T4 construct: made in house; host or cells: Sf-9 insect cells
T4 sequence (Q05769 18-604 Y371F): T1 sequence (Q05769 18-604 R499H) with Y354F, H482R
Procedure: as §1, §2
AA binds in the COX active site with the […] near Gly-533 [20,27].

effect of mutation on oxygenation rate [1]: did not greatly affect | reduction in initial rate of oxygenation compared with wild-type [2]: < 3 fold | effect of mutation on ability to metabolize AA [3]: did not greatly affect | substrate oxidation by Y385F [4]: fails to oxidize
SMILES: CCCCC/C=C\C/C=C\C/C=C\C/C=C\CCCC(=O)O [AA, arachidonic acid]
